Laboratory results from patent US20140323501A1, “AMINO-PROPYLENE-GLYCOL DERIVATIVES, PREPARATION METHOD AND PHARMACEUTICAL COMPOSITION AND USE THEREOF” (INSTITUTE OF MATERIA MEDICA, CHINESE ACADEMY OF MEDICAL …, priority 2011, published 2014).

Key:
[1] = system: SD rat peripheral blood lymphocyte counts; assay: Effect of S1P1 receptor agonists on rat vein (peripheral) blood lymphocyte counts; assay type: in vivo; conditions: for LYM 0 h: before administration; for Δ %: largest decrease of lymphocyte count vs 0 h
Description: 10 mg of drugs were measured and placed in a mortar. After 4 mL of 5‰ CMC-Na were added, homogenous suspension was prepared in the mortar (one drop of twain-80 was added to help dissolving). Dosage: 10 mg/Kg, dose volume: 0.4 mL/100 g, intragastric administration.
Every medicated group was assigned three rats.
After the experimental animals stable in the clean environment for 24 h, 10 μL of blood was withdrawn via tail vein and diluted into 2 mL of diluents quickly. […] Then the prepared drugs were administered intragastrically to the animals. […] The animals were killed after 24 h.

SD rat heart rate = assay: Effect of S1P1 receptor agonists on rat heart rate; assay type: in vivo; conditions: for HR delta %: (lowest heart rate postdose − pre-administration)/pre-administration; for heart rate pre-administration: before administration
Description: 2.1 Experimental animals: SD rats, purchased from Weitonglihua. Weight: 200-240 g, male. Every test group was assigned three rats. The normal rats were set as control group and determined as the medicated group parallelly for three times. The positive drug FTY720 was repeated three times.
2.2 Apparatus: Intelligent non-invasive blood pressure measurement meter (Softron, Japan).
(1) Preparation: The drug was dissolved to reach a concentration of 2.5 mg/mL.
(1) Determination of rat heart rate before administration. Repeat for three times.
(2) Administration: intragastric administration after SD rats weighed.
(3) Determination of rat heart rate at the time 0.5 h, 1 h, 3 h, 6 h, 8 h and 24 h after administration. Repeat for three times
Every drug was tested with three SD rats parallelly. […] Delta % of heart rate=(the lowest heart rate postdose−the heart rate pre-administration)/the heart rate pre-administration, reflects the influence of drugs on rat heart rate.

[2] = Table 6, intragastric, listed as FTY720-1
[3] = Table 6, intragastric, listed as FTY720-2

In the case of CCCCCCCCc1ccc(CCC(N)(CO)CO)cc1 [FTY720, reference compound], the “LYM 0 h” value ([1]; Table 1, 10 mg/Kg intragastric) was 4.20 ± 0.57 × 10^9/L, the “LYM 1 h” value ([1]; Table 1, 10 mg/Kg intragastric, 1 h after administration) was 4.75 ± 2.76 × 10^9/L and the “LYM 2 h” value ([1]; Table 1, 10 mg/Kg intragastric, 2 h after administration) was 2.45 ± 0.07 × 10^9/L. For the same compound, the “LYM 4 h” value ([1]; Table 1, 10 mg/Kg intragastric, 4 h after administration) was 2.75 ± 0.78 × 10^9/L, the “LYM 8 h” value ([1]; Table 1, 10 mg/Kg intragastric, 8 h after administration) was 1.80 ± 0.14 × 10^9/L and the “LYM 12 h” value ([1]; Table 1, 10 mg/Kg intragastric, 12 h after administration) was 1.00 ± 0.00 × 10^9/L. The “LYM 24 h” value ([1]; Table 1, 10 mg/Kg intragastric, 24 h after administration) was 2.60 ± 0.42 × 10^9/L, the “compared with 0 h (%) 1 h” value ([1]; Table 1, lymphocyte count change vs 0 h, 10 mg/Kg intragastric, 1 h) was −13.10% and the “compared with 0 h (%) 2 h” value ([1]; Table 1, lymphocyte count change vs 0 h, 10 mg/Kg intragastric, 2 h) was 41.67%. For the same compound, the “compared with 0 h (%) 4 h” value ([1]; Table 1, lymphocyte count change vs 0 h, 10 mg/Kg intragastric, 4 h) was 34.52%, the “compared with 0 h (%) 8 h” value ([1]; Table 1, lymphocyte count change vs 0 h, 10 mg/Kg intragastric, 8 h) was 57.14% and the “compared with 0 h (%) 12 h” value ([1]; Table 1, lymphocyte count change vs 0 h, 10 mg/Kg intragastric, 12 h) was 76.19%. The “compared with 0 h (%) 24 h” value ([1]; Table 1, lymphocyte count change vs 0 h, 10 mg/Kg intragastric, 24 h) was 38.10%, the “LYM 0 h” value ([1]; Table 3, 10 mg/Kg intragastric) was 4.97 ± 1.06 ×10^9/L and the “LYM 1 h” value ([1]; Table 3, 10 mg/Kg intragastric, 1 h) was 3.18 ± 0.52 ×10^9/L. The “LYM 2 h” value ([1]; Table 3, 10 mg/Kg intragastric, 2 h) was 3.15 ± 0.71 ×10^9/L, the “LYM 4 h” value ([1]; Table 3, 10 mg/Kg intragastric, 4 h) was 3.44 ± 1.30 ×10^9/L and the “LYM 6 h” value ([1]; Table 3, 10 mg/Kg intragastric, 6 h) was 2.78 ± 0.84 ×10^9/L. The “LYM 8 h” value ([1]; Table 3, 10 mg/Kg intragastric, 8 h) was 2.32 ± 0.90 ×10^9/L, the “LYM 12 h” value ([1]; Table 3, 10 mg/Kg intragastric, 12 h) was 2.33 ± 0.75 ×10^9/L and the “LYM 23 h” value ([1]; Table 3, 10 mg/Kg intragastric, 23 h) was 1.78 ± 0.29 ×10^9/L. For the same compound, the Δ % ([1]; Table 3, 10 mg/Kg intragastric) was 64.09%, the “LYM 0 h” value ([1]; Table 5, 10 mg/Kg intragastric) was 3.80 ± 0.14 × 10^9/L and the “LYM 1 h” value ([1]; Table 5, 10 mg/Kg intragastric, 1 h) was 2.30 ± 0.85 × 10^9/L. For the same compound, the “LYM 4 h” value ([1]; Table 5, 10 mg/Kg intragastric, 4 h) was 1.20 ± 0.36 × 10^9/L, the “LYM 8 h” value ([1]; Table 5, 10 mg/Kg intragastric, 8 h) was 1.07 ± 0.50 × 10^9/L and the “LYM 12 h” value ([1]; Table 5, 10 mg/Kg intragastric, 12 h) was 1.27 ± 0.23 × 10^9/L. For the same compound, the “LYM 24 h” value ([1]; Table 5, 10 mg/Kg intragastric, 24 h) was 1.60 ± 0.57 × 10^9/L, the Δ % ([1]; Table 5) was 71.93% and the “LYM 0 h” value ([1]; Table 7, 10 mg/Kg intragastric) was 3.80 ± 0.14 × 10^9/L. For the same compound, the “LYM 1 h” value ([1]; Table 7, 10 mg/Kg intragastric, 1 h) was 2.30 ± 0.85 × 10^9/L, the “LYM 4 h” value ([1]; Table 7, 10 mg/Kg intragastric, 4 h) was 1.20 ± 0.36 × 10^9/L and the “LYM 8 h” value ([1]; Table 7, 10 mg/Kg intragastric, 8 h) was 1.07 ± 0.50 × 10^9/L. The “LYM 12 h” value ([1]; Table 7, 10 mg/Kg intragastric, 12 h) was 1.27 ± 0.23 × 10^9/L, the “LYM 24 h” value ([1]; Table 7, 10 mg/Kg intragastric, 24 h) was 1.60 ± 0.57 × 10^9/L and the Δ % ([1]; Table 7) was 71.93%. The “LYM 0 h” value ([1]; Table 8, 10 mg/Kg intragastric) was 4.20 ± 0.57 × 10^9/L, the “LYM 1 h” value ([1]; Table 8, 10 mg/Kg intragastric, 1 h) was 4.75 ± 2.76 × 10^9/L and the “LYM 4 h” value ([1]; Table 8, 10 mg/Kg intragastric, 4 h) was 2.75 ± 0.78 × 10^9/L. For the same compound, the “LYM 8 h” value ([1]; Table 8, 10 mg/Kg intragastric, 8 h) was 1.80 ± 0.14 × 10^9/L, the “LYM 12 h” value ([1]; Table 8, 10 mg/Kg intragastric, 12 h) was 1.00 ± 0.00 × 10^9/L and the “LYM 24 h” value ([1]; Table 8, 10 mg/Kg intragastric, 24 h) was 2.60 ± 0.42 × 10^9/L. The Δ % ([1]; Table 8) was 76.19%, the HR delta % (SD rat heart rate; Table 2, listed as FTY720-1) was 19.60% and the HR delta % (SD rat heart rate; Table 2, listed as FTY720-2) was 17.80%. For the same compound, the HR delta % (SD rat heart rate; Table 2, listed as FTY720-3) was 14.00%, the HR delta % (SD rat heart rate; Table 2, listed as average of FTY720) was 16.6% and the “heart rate 0.5 h” value (SD rat heart rate; Table 2, intragastric, 0.5 h after administration, listed as FTY720-1) was 392.33. The “heart rate 0.5 h” value (SD rat heart rate; Table 2, intragastric, 0.5 h after administration, listed as FTY720-2) was 361.28, the “heart rate 0.5 h” value (SD rat heart rate; Table 2, intragastric, 0.5 h after administration, listed as FTY720-3) was 379.67 and the “heart rate 0.5 h” value (SD rat heart rate; Table 2, intragastric, 0.5 h after administration, listed as average of FTY720) was 377.76. For the same compound, the “heart rate 1 h” value (SD rat heart rate; Table 2, intragastric, 1 h after administration, listed as FTY720-1) was 361.00, the “heart rate 1 h” value (SD rat heart rate; Table 2, intragastric, 1 h after administration, listed as FTY720-2) was 331.71 and the “heart rate 1 h” value (SD rat heart rate; Table 2, intragastric, 1 h after administration, listed as FTY720-3) was 370.62. For the same compound, the “heart rate 1 h” value (SD rat heart rate; Table 2, intragastric, 1 h after administration, listed as average of FTY720) was 354.44, the “heart rate 3 h” value (SD rat heart rate; Table 2, intragastric, 3 h after administration, listed as FTY720-1) was 318.50 and the “heart rate 3 h” value (SD rat heart rate; Table 2, intragastric, 3 h after administration, listed as FTY720-2) was 329.33. The “heart rate 3 h” value (SD rat heart rate; Table 2, intragastric, 3 h after administration, listed as FTY720-3) was 355.83, the “heart rate 3 h” value (SD rat heart rate; Table 2, intragastric, 3 h after administration, listed as average of FTY720) was 334.55 and the “heart rate 6 h” value (SD rat heart rate; Table 2, intragastric, 6 h after administration, listed as FTY720-1) was 325.78. For the same compound, the “heart rate 6 h” value (SD rat heart rate; Table 2, intragastric, 6 h after administration, listed as FTY720-2) was 327.82, the “heart rate 6 h” value (SD rat heart rate; Table 2, intragastric, 6 h after administration, listed as FTY720-3) was 342.00 and the “heart rate 6 h” value (SD rat heart rate; Table 2, intragastric, 6 h after administration, listed as average of FTY720) was 331.86. For the same compound, the “heart rate 8 h” value (SD rat heart rate; Table 2, intragastric, 8 h after administration, listed as FTY720-1) was 341.00, the “heart rate 8 h” value (SD rat heart rate; Table 2, intragastric, 8 h after administration, listed as FTY720-2) was 338.78 and the “heart rate 8 h” value (SD rat heart rate; Table 2, intragastric, 8 h after administration, listed as FTY720-3) was 342.50. The “heart rate 8 h” value (SD rat heart rate; Table 2, intragastric, 8 h after administration, listed as average of FTY720) was 340.76, the “heart rate 24 h” value (SD rat heart rate; Table 2, intragastric, 24 h after administration, listed as FTY720-1) was 329.67 and the “heart rate 24 h” value (SD rat heart rate; Table 2, intragastric, 24 h after administration, listed as FTY720-2) was 365.07. For the same compound, the “heart rate 24 h” value (SD rat heart rate; Table 2, intragastric, 24 h after administration, listed as FTY720-3) was 363.44, the “heart rate 24 h” value (SD rat heart rate; Table 2, intragastric, 24 h after administration, listed as average of FTY720) was 352.72 and the heart rate pre-administration (SD rat heart rate; Table 2, intragastric, listed as FTY720-1) was 396.28. For the same compound, the heart rate pre-administration (SD rat heart rate; Table 2, intragastric, listed as FTY720-2) was 398.60, the heart rate pre-administration (SD rat heart rate; Table 2, intragastric, listed as FTY720-3) was 398.22 and the heart rate pre-administration (SD rat heart rate; Table 2, intragastric, listed as average of FTY720) was 397.70. For the same compound, the “Δ % = the percentage of change of rat heart rate before and after administration” value (SD rat heart rate; Table 4) was 26.16%, the “heart rate 0.5 h” value (SD rat heart rate; Table 4, intragastric, 0.5 h) was 356.33 and the “heart rate 1 h” value (SD rat heart rate; Table 4, intragastric, 1 h) was 319.22. The “heart rate 3 h” value (SD rat heart rate; Table 4, intragastric, 3 h) was 288.58, the “heart rate 6 h” value (SD rat heart rate; Table 4, intragastric, 6 h) was 280.13 and the “heart rate 8 h” value (SD rat heart rate; Table 4, intragastric, 8 h) was 308.08. The “heart rate 24 h” value (SD rat heart rate; Table 4, intragastric, 24 h) was 323.25, the “heart rate 0” value (SD rat heart rate; Table 4, intragastric, time 0, before administration) was 379.42 and the HR delta % (SD rat heart rate; Table 6, listed as FTY720-1) was 21.86%. For the same compound, the HR delta % (SD rat heart rate; Table 6, listed as FTY720-2) was 22.61%, the “heart rate 1 h” value (SD rat heart rate; Table 6, intragastric, 1 h, listed as FTY720-1) was 389.62 ± 30.01 and the “heart rate 1 h” value (SD rat heart rate; Table 6, intragastric, 1 h, listed as FTY720-2) was 389.62 ± 23.39. The “heart rate 4 h” value (SD rat heart rate; [2]) was 340.17 ± 32.04, the “heart rate 4 h” value (SD rat heart rate; [3]) was 354.27 ± 15.79 and the “heart rate 8 h” value (SD rat heart rate; Table 6, intragastric, 8 h, listed as FTY720-1) was 361.69 ± 27.99. The “heart rate 8 h” value (SD rat heart rate; Table 6, intragastric, 8 h, listed as FTY720-2) was 346.91 ± 26.41, the “heart rate 12 h” value (SD rat heart rate; [2]) was 360.62 ± 18.19 and the “heart rate 12 h” value (SD rat heart rate; [3]) was 335.67 ± 16.30. For the same compound, the “heart rate 24 h” value (SD rat heart rate; Table 6, intragastric, 24 h, listed as FTY720-1) was 410.31 ± 32.13, the “heart rate 24 h” value (SD rat heart rate; Table 6, intragastric, 24 h, listed as FTY720-2) was 370.18 ± 26.82 and the heart rate pre-administration (SD rat heart rate; [2]) was 435.36 ± 47.99. The heart rate pre-administration (SD rat heart rate; [3]) was 433.75 ± 30.84, the HR delta % (SD rat heart rate; Table 9) was 17.80% and the “heart rate 0.5 h” value (SD rat heart rate; Table 9, intragastric, 0.5 h) was 361.28 ± 22.91. For the same compound, the “heart rate 1 h” value (SD rat heart rate; Table 9, intragastric, 1 h) was 331.71 ± 12.26, the “heart rate 3 h” value (SD rat heart rate; Table 9, intragastric, 3 h) was 329.33 ± 11.32 and the “heart rate 6 h” value (SD rat heart rate; Table 9, intragastric, 6 h) was 327.82 ± 15.60. The “heart rate 8 h” value (SD rat heart rate; Table 9, intragastric, 8 h) was 338.78 ± 12.07, the “heart rate 24 h” value (SD rat heart rate; Table 9, intragastric, 24 h) was 365.07 ± 19.47 and the heart rate pre-administration (SD rat heart rate; Table 9, intragastric) was 398.60 ± 33.20.
